From a melting point compilation (Tetko et al.; mined from patent text by program, amines drawn as free bases though some values may be those of a salt)

| melting point | Compound |
| --- | --- |
| 161 to 162 °C | Cc1[nH]cnc1CSCCNc1[nH]ccc1[N+](=O)[O-] |
| 194 to 195 °C | CCCCc1cn(CC(C)(C)C)c(=O)n1Cc1ccc(-c2ccccc2-c2nnn[nH]2)nc1 |
| 136 to 138 °C | CCCc1nc2c(N)nc3cc(-c4cccnc4)ccc3c2n1CCCCNC(=O)OC(C)(C)C |
| 137 to 145 °C | CN1CCC(c2cccc3ccc(NC(=O)c4ccccc4)cc23)C1 (stereo unspecified) |
| 110 to 111 °C | O=C1CCCC(c2ccc(Cl)cc2)O1 (stereo unspecified) |
| 122 to 124 °C | CCN1C(=O)CCc2cc(S(=O)(=O)c3cccc([C@@]4(O)CCO[C@@H](C)C4)c3)ccc21 |
| 144 to 146 °C | CC1(C)CCC(C)(C)c2cc(C(=O)Nc3ccccc3)ccc21 |
| 222 °C | O=C1NCc2cc(C(c3ccccc3)n3ccnc3)ccc2N1 (stereo unspecified) |
| 177 °C | Cc1cc(C#N)cc(C(=O)Nc2ccc(F)c(C)c2)n1 |
| 146 °C | O=C(O)c1cccc2c1Oc1c(cccc1C(=O)O)N2 |
| 106 °C | COc1ccc(C2CCCCC2)cc1-c1csc(NC(=O)N2CCN(C[C@@H]3CCCN(CC#N)C3)CC2)n1 |
| 176 to 179 °C | O=C(O)c1cc([N+](=O)[O-])ccc1C(=O)c1ccccc1 |
| 195 to 197 °C | O=C(O)Cc1ccc(NC(=O)C(COc2cccc(Cl)c2)NS(=O)(=O)c2ccc(F)cc2)cc1 (racemic) |
| 195 to 197 °C | CCOCC(=O)Nc1ccc(C2=NNC(=O)CC2C)cc1 (stereo unspecified) |
| 90 to 92 °C | CC(C)C(NC(=O)c1ccc(C(=O)NCc2ccc(N)cc2)cc1)C(=O)N1CCCC1C(=O)NC(C(=O)C(F)(F)F)C(C)C (mixture of isomers) |
| 152 to 154 °C | O=C(O)CCc1cc(Cl)cc2nc(-c3ccccc3Cl)oc12 |
| 149 to 151 °C | COC(=O)C1=C(CN2CCN(C)CC2)Nc2ccnc(OC(C)C)c2C1c1ccccc1 (stereo unspecified) |
| 226 to 228 °C | CSc1ncnc2c(C3OC(CO)C(O)C3O)csc12 (stereo unspecified) |
| 64 to 66 °C | CCOC(=O)C1=Cc2cccc(N3CCCC3=O)c2OCC1 |
| 133 to 134 °C | CCCCOc1cc(C(=O)O)cc([N+](=O)[O-])c1-c1ccccc1 |
| 145 to 147 °C | O[C@H]1c2cc(OCc3cccnc3)ccc2OC[C@H]1Cc1cccnc1 (relative stereo) |
| 227 to 231 °C | CCOc1cc(OCC)cc(-c2c(Cl)ncn2-c2ccc(S(C)(=O)=O)cc2)c1 |
| 129 to 130 °C | O=Cc1cccc(-c2nnc(-c3ccc(C(F)(F)F)cc3)o2)c1 |

| melting point | Compound |
| --- | --- |
| 72 to 78 °C | CCCCc1oc2ccccc2c1C(=O)N(C)Cc1ccc(-c2ccc(OCC(=O)O)c(Br)c2)cc1 |
| 70 to 72 °C | CCOCCOc1ccc2c(c1)C(CNS(=O)(=O)CC)CC(C)(C)O2 (stereo unspecified) |
| 62 °C | COc1ccccc1-n1cnnc1C(F)(F)F |
| 115 to 116 °C | COC(=O)c1sc2ccc(CCl)cc2c1C |
| 242 °C | NS(=O)(=O)c1ccc(-c2cc(-c3nc(-c4ccc(C(F)(F)F)cc4)cc(C(F)F)n3)ccn2)s1 |
| 110 to 111 °C | CCCCOCCOc1ccc(-c2ccc(N3CCC(COC(C)=O)C3)c(C=C(C)C(=O)O)c2)cc1 (stereo unspecified) |
| 106 to 107 °C | CCCCOCCOc1ccc(-c2cnc(N3CCCC3)c(/C=C(\C)C(=O)O)c2)cc1 |
| 146 °C | O=C(O)c1ccc(Cl)cc1Oc1cccc(C(F)(F)F)c1 |
| 81 to 83 °C | COc1ccc(Oc2ccccc2NS(C)(=O)=O)cc1 |
| 214 to 216 °C | COc1ccccc1NC(=O)NCc1cccc2c1C(=O)N(C1CCC(=O)NC1=O)C2=O (stereo unspecified) |
| 213 to 215 °C | O=S1(=O)c2ccccc2Oc2cc(O)ccc21 |
| 273 to 274 °C | CC(C)OC(=O)c1cc2c(cn1)[nH]c1cccc(Oc3ccc(Cl)cc3)c12 |
| 70 to 72 °C | CC1(CC(=O)O)CCCC1=O (stereo unspecified) |
| 265 to 270 °C | Cc1c(-c2ccccc2)sc2nc(NC3CCCCC3)[nH]c(=O)c12 |
| 275 to 277 °C | N#Cc1c(O)nc2ccc(Cl)cc2c1O |
| 161 to 162 °C | Cc1cccc2[nH]c(-c3ccccc3F)nc12 |
| 82.5 to 83.5 °C | CCCCCc1cc(C(=O)OC)ccc1O |
| 99 to 100 °C | C=C(c1ccsc1C=O)c1cc(C(C)(C)C)cc2c1CCC2(C)C |
| 94 to 114 °C | CC(=O)CC(=O)NCC1C(NC(=O)CC(C)=O)C(C)CC1(C)C (stereo unspecified) |
| 78 °C | Clc1nc2cccc3c2n1CCC3 |
| 98 to 99 °C | CCCc1nn(-c2ccc(C(F)(F)F)cn2)cc1CCCOc1cc(CCC(=O)O)cc(OC)c1 |
| 217 to 218 °C | CCc1nc2c(N)nc3ccccc3c2n1CC1(O)CCCCC1 |
| 95 to 100 °C | C[Si](C)(C)C#Cc1ccc([N+](=O)[O-])cc1 |

| melting point | Compound |
| --- | --- |
| 134 to 135 °C | COc1ccc(C2(CCC(=O)O)SCCCS2)cc1OC |
| 220 to 223 °C | COc1cc(N)c(Cl)cc1C(=O)NCC1CCN(CCS(=O)(=O)Cc2ccccc2)CC1 |
| 118 to 120 °C | O=C(O)Cc1ccc(C2=CCCCC2)cc1 |
| 235 °C | COc1nc(O)nc(C)c1Cl |
| 147 to 148 °C | Cc1ccc(Cc2cnc(NCCCNc3ncc(Cl)cc3Cl)[nH]c2=O)cn1 |
| 143 to 147 °C | CCCc1c(C#N)ccc(NC(=NC#N)Nc2cccc(Cl)c2Cl)c1O |
| 102 to 104 °C | CNc1nc(-c2cccc(C#Cc3ccccc3)c2)c2cc(OC)c(OC)cc2n1 |
| 137 to 138 °C | COc1cc2[nH]c(SCc3nccc(OC)c3OC)nc2cc1OC(F)F |
| 56 to 57 °C | CCOC(=O)c1ccccc1C(=O)c1ccc2c(c1)C(C)(C)C(C)C2(C)C (stereo unspecified) |
| 170 to 171 °C | Cc1ccc(-c2nn3cccnc3c2CC(=O)O)cc1 |
| 50 to 58 °C | O=C(O)c1ccc(CCCOCCCCCCNCC(O)c2ccc(O)c(CO)c2)cc1 (stereo unspecified) |
| 78 to 81 °C | O=[N+]([O-])c1ccc(Cl)c(C2OCCO2)c1 |
| 55 to 57 °C | O=Cc1c(F)ccc(Cl)c1Cl |
| 113 to 114 °C | CS(=O)(=O)c1ccc(-c2cnn(CC(F)(F)F)c(=O)c2OC2CCc3ccccc32)cc1 (stereo unspecified) |
| 250 to 253 °C | O=C1Nc2ccccc2Oc2ncccc21 |
| 114 to 115 °C | CC(=O)N(C(C)=O)c1ccccc1Cn1[nH]c2ccccc2c1=O |
| 223 to 224 °C | CS(=O)(=O)N1CCC(=C2c3ccccc3CCc3cccnc32)CC1 |
| 260 to 262 °C | O=C1c2ccc(OCCO)cc2C(=O)c2cc(-c3nnn[nH]3)ccc21 |
| 268 to 269 °C | Cn1c(=O)ccc2ccc(N)cc21 |
| 119 to 122 °C | Cc1cc2c(cc1C(=O)c1c(C(F)(F)F)ccnc1Cl)OCO2 |
| 175 to 176 °C | Cc1oc(-c2ccccc2)nc1COc1ccc(Cn2cc(CCC(=O)O)c(-c3ccccc3)n2)nc1 |
| 147 to 149 °C | COc1ccc(CC2NC(=O)NC2=O)cc1CCc1ccccc1 (stereo unspecified) |
| 137 to 138 °C | CN1CCN(C(=O)OC(C)(C)C)CC1C(N)=O (stereo unspecified) |

| melting point | Compound |
| --- | --- |
| 182 °C | COC(=O)c1cc2cccc(OC)c2cc1O |
| 140 to 142 °C | C[C@H](C#Cc1ccc(Cc2ccccc2)s1)N(O)C(N)=O |
| 134 to 137 °C | COC(=O)C1=C(CO)NC(C)=C(C(=O)OC(C)C)C1c1ccccc1C#N (stereo unspecified) |
| 280 to 285 °C | COC(=O)[C@@H]1Cc2cc(OC)c(O)cc2C(=O)N1 |
| 125 to 126 °C | COC(=O)c1cccc(-c2cccc(Oc3cc(Cl)cc(Cl)c3)n2)c1 |
| 116 °C | Clc1cccc(NNc2cccc(Cl)c2)c1 |
| 189 to 191 °C | CN(CCSc1ccc2ncc([N+](=O)[O-])n2n1)c1ccnc(CO)c1Cl |
| 255 to 256 °C | CC1(C)OC(=O)Nc2ccc(-c3ccc(F)c(C#N)c3)cc21 |
| 122 to 124 °C | O=CC=CC(=C(c1ccc(F)cc1)c1ccc(F)cc1)c1nnn(C(c2ccccc2)(c2ccccc2)c2ccccc2)n1 |
| > 250 °C | CCOC(=O)Cn1c(=O)c(=O)[nH]c2cc(C(F)(F)F)c(-n3ccc(C=NO)c3)cc21 |
| 149 to 156 °C | CN(C)C(=O)C(C)(C)Sc1nc2ccccc2cc1-c1ccccc1 |
| 102 to 103 °C | CCCOc1ccc(F)cc1OCCN1C(=O)c2ccccc2C1=O |
| 89 to 91 °C | O=C(NCc1ccccc1)c1ccc(OC2SCC(O)C(O)C2O)cn1 (stereo unspecified) |
| 171 to 174 °C | O=C(NNC(=O)c1occ(-c2ccccc2)c1-c1ccccc1)c1ccc(O)c(I)c1 |
| 167 to 168 °C | Cc1cccc2c1oc1c(NC(=O)c3ccccn3)n(C)nc12 |
| 123 to 125 °C | CC(C)n1c(=O)n(C)c(=O)c2c(SCCCO)n(C3Cc4ccccc4C3)cc21 |
| 220 to 221 °C | Nc1c(Br)cc2c(c1Br)CCC2 |
| 103 to 104 °C | N#CSc1nc(Cl)ncc1F |
| 170 to 173 °C | O=c1[nH]cc(Cl)cc1Br |
| 192 to 194 °C | CCc1nc(O)c2c(n1)c(C)nn2CC |
| 126 to 131 °C | CCOc1cc(N(CC)CC)ccc1C1(N(c2ccccc2)c2ccc(NC(C)=O)cc2)OC(=O)c2ccccc21 (stereo unspecified) |
| 153 to 154 °C | COC(=O)c1ccc(CCC(CS(=O)(=O)c2ccc(Oc3ccc(OC(F)(F)F)cc3)cc2)N(O)C=O)cc1 (stereo unspecified) |
| 174 to 175 °C | O=C1c2ccccc2C(=O)N1OCc1nc(=O)c(O)c[nH]1 |

| Compound | melting point |
| --- | --- |
| Cc1ccc(C2(O)CCCCC2C(c2ccccc2)N(C)C)cc1 (stereo unspecified) | 168 to 169 °C |
| Cc1cc(C)n(CCOc2cc3c(cc2C)OC2(CC(C)(C)c4cc(O)c(C)cc4O2)CC3(C)C)n1 (stereo unspecified) | 223 to 225 °C |
| O=C1COC2(CCN(CCc3c[nH]c4ccccc34)CC2)CN1 | 48 to 50 °C |
| CSC(=O)C(C)(C)NC(=O)c1cc2c(n(CC3CCCCC3)c1=O)CCCCCC2 | 196 to 198 °C |
| Cc1nnc2ccc(-c3cccc(C(F)(F)F)c3)nn12 | 193 to 194 °C |
| CCOC(=O)C1=C(C)NC(C)=C2C(=O)Nc3ccccc3C21 (stereo unspecified) | 236 to 238 °C |
| N#Cc1cc(Br)c(C(=O)CCl)s1 | 126 to 128 °C |
| CC#CC1(O)CCC2C3CCC4=CC(=O)CCC4C3C(=CF)CC21CC (stereo unspecified) | 199 to 205 °C |
| CC(=O)OCCNC(=O)Nc1ccc2c(c1)C(c1ccccc1F)=NCC(=O)N2C | 196 to 198 °C |
